Reference: ChEMBL document CHEMBL1201862, “PubChem BioAssay data set” (2004)
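All cell lines were grown in 96-well plates and treated with compound for 48 hours. GI50 marks 50% less growth.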 Calls of active or inactive are those of the source. Cut-off read from the data, not from the text of the source: active = GI50 up to about 1.1 µM and inactive = higher.

Columns and labels:
Test in all cases: DTP human tumour cell line panel, 48 h
UACC-257 = test system: UACC-257
KM12 = test system: KM12
SK-OV-3 = test system: SK-OV-3
MCF7 = test system: MCF7
RPMI-8226 = test system: RPMI-8226
MDA-MB-435 = test system: MDA-MB-435
SK-MEL-2 = test system: SK-MEL-2
SNB-19 = test system: SNB-19
SNB-75 = test system: SNB-75
DU-145 = test system: DU-145
UACC-62 = test system: UACC-62
EKVX = test system: EKVX
RXF 393 = test system: RXF 393
786-0 = test system: 786-0
T47D = test system: T47D
M14 = test system: M14
NCI-H522 = test system: NCI-H522
SN12C = test system: SN12C
OVCAR-5 = test system: OVCAR-5
K562 = test system: K562
HCT-15 = test system: HCT-15
SW-620 = test system: SW-620
SF-268 = test system: SF-268
HCC 2998 = test system: HCC 2998
NCI-H460 = test system: NCI-H460
HOP-62 = test system: HOP-62
Hs-578T = test system: Hs-578T
NCI/ADR-RES = test system: NCI/ADR-RES
IGROV-1 = test system: IGROV-1
COLO 205 = test system: COLO 205
NCI-H23 = test system: NCI-H23
OVCAR-3 = test system: OVCAR-3
MDA-N = test system: MDA-N
CCRF-CEM = test system: CCRF-CEM
Malme-3M = test system: Malme-3M
HL-60 = test system: HL-60
SK-MEL-28 = test system: SK-MEL-28
SK-MEL-5 = test system: SK-MEL-5
A549 = test system: A549
U-251 = test system: U-251
HT-29 = test system: HT-29
PC-3 = test system: PC-3
SR = test system: SR
OVCAR-8 = test system: OVCAR-8
LOX IMVI = test system: LOX IMVI
NCI-H226 = test system: NCI-H226
UO-31 = test system: UO-31
SF-295 = test system: SF-295
HCT-116 = test system: HCT-116
MOLT-4 = test system: MOLT-4
HOP-92 = test system: HOP-92
MDA-MB-231 = test system: MDA-MB-231
BT-549 = test system: BT-549
ACHN = test system: ACHN
CAKI-1 = test system: CAKI-1
SF-539 = test system: SF-539
OVCAR-4 = test system: OVCAR-4
TK-10 = test system: TK-10
A498 = test system: A498

CC(=O)OCC(OC(C)=O)C(OC(C)=O)C(/C=N\Nc1nc2ccccc2c(=O)[nH]1)=N\Nc1nc2ccccc2c(=O)[nH]1 (stereo not drawn)
GI50 (UACC-257): 17.3 µM (inactive)
GI50 (KM12): 4.68 µM (inactive)
GI50 (SK-OV-3): > 100 µM (inactive)
GI50 (MCF7): > 100 µM (inactive)
GI50 (RPMI-8226): > 100 µM (inactive)
GI50 (MDA-MB-435): > 100 µM (inactive)
GI50 (SK-MEL-2): > 100 µM (inactive)
GI50 (SNB-19): > 100 µM (inactive)
GI50 (SNB-75): > 100 µM (inactive)
GI50 (DU-145): > 100 µM (inactive)
GI50 (UACC-62): > 100 µM (inactive)
GI50 (EKVX): > 100 µM (inactive)
GI50 (RXF 393): > 100 µM (inactive)
GI50 (786-0): > 100 µM (inactive)
GI50 (T47D): 47 µM (inactive)
GI50 (M14): > 100 µM (inactive)
GI50 (NCI-H522): > 100 µM (inactive)
GI50 (SN12C): > 100 µM (inactive)
GI50 (OVCAR-5): > 100 µM (inactive)
GI50 (K562): > 100 µM (inactive)
GI50 (HCT-15): > 100 µM
GI50 (SW-620): > 100 µM (inactive)
GI50 (SF-268): > 100 µM (inactive)
GI50 (HCC 2998): 19.1 µM (inactive)
GI50 (NCI-H460): 22.3 µM (inactive)
GI50 (HOP-62): > 100 µM (inactive)
GI50 (Hs-578T): > 100 µM (inactive)
GI50 (NCI/ADR-RES): > 100 µM (inactive)
GI50 (IGROV-1): > 100 µM (inactive)
GI50 (COLO 205): > 100 µM (inactive)
GI50 (NCI-H23): > 100 µM (inactive)
GI50 (OVCAR-3): > 100 µM (inactive)
GI50 (MDA-N): > 100 µM (inactive)
GI50 (CCRF-CEM): 34.4 µM (inactive)
GI50 (Malme-3M): > 100 µM (inactive)
GI50 (HL-60): > 100 µM (inactive)
GI50 (SK-MEL-28): > 100 µM (inactive)
GI50 (SK-MEL-5): > 100 µM (inactive)
GI50 (A549): > 100 µM (inactive)
GI50 (U-251): > 100 µM (inactive)
GI50 (HT-29): > 100 µM (inactive)
GI50 (PC-3): > 100 µM (inactive)
GI50 (SR): 63.8 µM (inactive)
GI50 (OVCAR-8): > 100 µM (inactive)
GI50 (LOX IMVI): > 100 µM (inactive)
GI50 (NCI-H226): > 100 µM (inactive)
GI50 (UO-31): > 100 µM (inactive)
GI50 (SF-295): > 100 µM (inactive)
GI50 (HCT-116): > 100 µM (inactive)
GI50 (MOLT-4): > 100 µM (inactive)
GI50 (HOP-92): > 100 µM (inactive)
GI50 (MDA-MB-231): > 100 µM (inactive)
GI50 (BT-549): > 100 µM (inactive)
GI50 (ACHN): > 100 µM (inactive)
GI50 (CAKI-1): > 100 µM (inactive)
GI50 (SF-539): > 100 µM (inactive)

CN1CCC/C1=C1\C(=O)c2cccn2C1=O
GI50 (UACC-257): > 100 µM (inactive)
GI50 (KM12): > 100 µM (inactive)
GI50 (SK-OV-3): > 100 µM (inactive)
GI50 (MCF7): > 100 µM (inactive)
GI50 (RPMI-8226): > 100 µM (inactive)
GI50 (OVCAR-4): > 100 µM (inactive)
GI50 (TK-10): > 100 µM (inactive)
GI50 (MDA-MB-435): > 100 µM (inactive)
GI50 (SK-MEL-2): > 100 µM (inactive)
GI50 (SNB-19): > 100 µM (inactive)
GI50 (SNB-75): > 100 µM (inactive)
GI50 (DU-145): > 100 µM (inactive)
GI50 (UACC-62): > 100 µM (inactive)
GI50 (EKVX): > 100 µM (inactive)
GI50 (RXF 393): > 100 µM (inactive)
GI50 (786-0): > 100 µM (inactive)
GI50 (T47D): > 100 µM (inactive)
GI50 (M14): > 100 µM (inactive)
GI50 (NCI-H522): > 100 µM (inactive)
GI50 (SN12C): > 100 µM (inactive)
GI50 (OVCAR-5): > 100 µM (inactive)
GI50 (K562): > 100 µM (inactive)
GI50 (HCT-15): > 100 µM
GI50 (SW-620): > 100 µM (inactive)
GI50 (SF-268): > 100 µM (inactive)
GI50 (HCC 2998): > 100 µM (inactive)
GI50 (NCI-H460): > 100 µM (inactive)
GI50 (HOP-62): > 100 µM (inactive)
GI50 (Hs-578T): > 100 µM (inactive)
GI50 (A498): > 100 µM (inactive)
GI50 (NCI/ADR-RES): > 100 µM (inactive)
GI50 (IGROV-1): > 100 µM (inactive)
GI50 (COLO 205): > 100 µM (inactive)
GI50 (NCI-H23): > 100 µM (inactive)
GI50 (OVCAR-3): > 100 µM (inactive)
GI50 (MDA-N): > 100 µM (inactive)
GI50 (CCRF-CEM): > 100 µM (inactive)
GI50 (Malme-3M): > 100 µM (inactive)
GI50 (HL-60): > 100 µM (inactive)
GI50 (SK-MEL-28): > 100 µM (inactive)
GI50 (SK-MEL-5): > 100 µM (inactive)
GI50 (A549): > 100 µM (inactive)
GI50 (U-251): > 100 µM (inactive)
GI50 (HT-29): > 100 µM (inactive)
GI50 (PC-3): > 100 µM (inactive)
GI50 (SR): > 100 µM (inactive)
GI50 (OVCAR-8): > 100 µM (inactive)
GI50 (LOX IMVI): > 100 µM (inactive)
GI50 (NCI-H226): > 100 µM (inactive)
GI50 (UO-31): > 100 µM (inactive)
GI50 (SF-295): > 100 µM (inactive)
GI50 (HCT-116): > 100 µM (inactive)
GI50 (MOLT-4): > 100 µM (inactive)
GI50 (MDA-MB-231): > 100 µM (inactive)
GI50 (BT-549): > 100 µM (inactive)
GI50 (ACHN): > 100 µM (inactive)
GI50 (CAKI-1): > 100 µM (inactive)
